According to ChEMBL document CHEMBL2016457, “Discovery of potent and orally bioavailable 17β-hydroxysteroid dehydrogenase type 3 inhibitors” (Bioorg Med Chem, 2012):
Active and inactive are the calls of the source.

Columns and labels:
[1] = target: T1, Glucocorticoid receptor (Homo sapiens) (UniProt P04150); test: Agonist activity at human Glucocorticoid receptor expressed in human HeLa cells assessed as DHT-induced response after 40 hrs by luciferase/beta-galactosidase-based reporter gene assay; type: functional, cell-based
T1 sequence (whole entry): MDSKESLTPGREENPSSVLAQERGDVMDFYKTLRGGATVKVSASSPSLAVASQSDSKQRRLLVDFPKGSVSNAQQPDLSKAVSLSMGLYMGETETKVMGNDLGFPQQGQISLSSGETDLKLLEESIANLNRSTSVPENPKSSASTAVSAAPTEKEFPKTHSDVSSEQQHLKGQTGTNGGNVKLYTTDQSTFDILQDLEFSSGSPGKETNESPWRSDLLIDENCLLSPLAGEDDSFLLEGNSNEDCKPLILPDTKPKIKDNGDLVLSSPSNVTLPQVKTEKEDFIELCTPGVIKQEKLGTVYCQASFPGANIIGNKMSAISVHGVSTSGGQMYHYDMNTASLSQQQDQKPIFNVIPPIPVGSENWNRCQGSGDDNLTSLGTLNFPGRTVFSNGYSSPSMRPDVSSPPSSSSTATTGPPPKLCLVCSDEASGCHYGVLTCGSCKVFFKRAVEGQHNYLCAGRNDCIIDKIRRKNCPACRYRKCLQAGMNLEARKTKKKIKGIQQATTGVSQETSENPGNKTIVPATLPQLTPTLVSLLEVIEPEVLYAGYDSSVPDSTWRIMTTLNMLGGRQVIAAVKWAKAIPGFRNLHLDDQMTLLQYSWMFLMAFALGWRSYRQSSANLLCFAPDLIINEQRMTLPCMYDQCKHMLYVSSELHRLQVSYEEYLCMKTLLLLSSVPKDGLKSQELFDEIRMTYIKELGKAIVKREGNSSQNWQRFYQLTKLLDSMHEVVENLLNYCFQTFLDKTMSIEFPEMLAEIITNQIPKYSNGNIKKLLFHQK

[2] = target: T2, 17-beta-hydroxysteroid dehydrogenase type 2 (Homo sapiens) (UniProt P37059); test: Inhibition of human recombinant 17-beta-HSD2 expressed in human HeLa cells using estradiol as substrate preincubated for 30 mins prior substrate addition measured after 120 mins by spectrophotometry; type: cell-based
T2 sequence (whole entry): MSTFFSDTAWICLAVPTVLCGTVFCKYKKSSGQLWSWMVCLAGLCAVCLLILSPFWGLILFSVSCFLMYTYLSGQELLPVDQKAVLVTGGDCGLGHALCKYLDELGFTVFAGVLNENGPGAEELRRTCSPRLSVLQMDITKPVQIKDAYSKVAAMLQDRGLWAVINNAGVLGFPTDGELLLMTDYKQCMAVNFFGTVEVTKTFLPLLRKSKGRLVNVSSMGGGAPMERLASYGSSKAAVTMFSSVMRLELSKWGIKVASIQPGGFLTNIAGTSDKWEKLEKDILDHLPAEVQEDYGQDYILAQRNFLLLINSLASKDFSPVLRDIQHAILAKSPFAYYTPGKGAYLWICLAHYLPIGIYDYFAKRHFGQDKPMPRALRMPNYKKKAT

[3] = target: T1, Glucocorticoid receptor (Homo sapiens); test: Antagonist activity at human GR receptor expressed in human HeLa cells assessed as inhibition of DHT-induced response after 40 hrs by luciferase/beta-galactosidase-based reporter gene assay; type: functional, cell-based
[4] = target: T3, Androgen receptor (Homo sapiens) (UniProt P10275); test: Agonist activity at human androgen receptor expressed in human HeLa cells assessed as DHT-induced response after 40 hrs by luciferase/beta-galactosidase-based reporter gene assay; type: functional, cell-based
T3 sequence (whole entry): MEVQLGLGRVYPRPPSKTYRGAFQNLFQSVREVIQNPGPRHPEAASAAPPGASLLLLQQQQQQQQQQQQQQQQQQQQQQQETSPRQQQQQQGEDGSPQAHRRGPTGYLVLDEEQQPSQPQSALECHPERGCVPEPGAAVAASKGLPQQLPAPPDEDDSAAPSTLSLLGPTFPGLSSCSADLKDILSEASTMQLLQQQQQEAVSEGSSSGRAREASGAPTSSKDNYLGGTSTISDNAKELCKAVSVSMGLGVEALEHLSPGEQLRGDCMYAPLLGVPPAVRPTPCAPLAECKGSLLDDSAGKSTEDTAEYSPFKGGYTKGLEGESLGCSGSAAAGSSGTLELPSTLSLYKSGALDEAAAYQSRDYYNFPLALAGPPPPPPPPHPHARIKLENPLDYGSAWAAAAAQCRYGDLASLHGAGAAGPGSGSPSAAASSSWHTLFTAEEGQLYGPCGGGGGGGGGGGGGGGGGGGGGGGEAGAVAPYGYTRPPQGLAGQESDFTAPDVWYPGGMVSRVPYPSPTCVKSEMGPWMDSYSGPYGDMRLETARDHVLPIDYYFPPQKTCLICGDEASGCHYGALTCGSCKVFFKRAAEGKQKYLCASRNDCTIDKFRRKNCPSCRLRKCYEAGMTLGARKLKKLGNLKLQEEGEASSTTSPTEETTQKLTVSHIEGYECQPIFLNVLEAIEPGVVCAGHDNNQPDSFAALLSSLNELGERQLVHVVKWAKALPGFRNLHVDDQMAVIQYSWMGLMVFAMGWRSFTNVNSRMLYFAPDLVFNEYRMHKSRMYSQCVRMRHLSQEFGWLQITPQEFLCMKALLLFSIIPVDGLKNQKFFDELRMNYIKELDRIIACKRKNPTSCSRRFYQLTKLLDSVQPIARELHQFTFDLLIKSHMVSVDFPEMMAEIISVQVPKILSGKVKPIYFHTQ

[5] = target: T3, Androgen receptor (Homo sapiens); test: Antagonist activity at human androgen receptor expressed in human HeLa cells assessed as inhibition of DHT-induced response after 40 hrs by luciferase/beta-galactosidase-based reporter gene assay; type: functional, cell-based
[6] = target: T4, Estrogen receptor (Homo sapiens) (UniProt P03372); test: Agonist activity at human Estrogen receptor ERalpha expressed in human HeLa cells assessed as DHT-induced response after 40 hrs by luciferase/beta-galactosidase-based reporter gene assay; type: functional, cell-based
T4 sequence (whole entry): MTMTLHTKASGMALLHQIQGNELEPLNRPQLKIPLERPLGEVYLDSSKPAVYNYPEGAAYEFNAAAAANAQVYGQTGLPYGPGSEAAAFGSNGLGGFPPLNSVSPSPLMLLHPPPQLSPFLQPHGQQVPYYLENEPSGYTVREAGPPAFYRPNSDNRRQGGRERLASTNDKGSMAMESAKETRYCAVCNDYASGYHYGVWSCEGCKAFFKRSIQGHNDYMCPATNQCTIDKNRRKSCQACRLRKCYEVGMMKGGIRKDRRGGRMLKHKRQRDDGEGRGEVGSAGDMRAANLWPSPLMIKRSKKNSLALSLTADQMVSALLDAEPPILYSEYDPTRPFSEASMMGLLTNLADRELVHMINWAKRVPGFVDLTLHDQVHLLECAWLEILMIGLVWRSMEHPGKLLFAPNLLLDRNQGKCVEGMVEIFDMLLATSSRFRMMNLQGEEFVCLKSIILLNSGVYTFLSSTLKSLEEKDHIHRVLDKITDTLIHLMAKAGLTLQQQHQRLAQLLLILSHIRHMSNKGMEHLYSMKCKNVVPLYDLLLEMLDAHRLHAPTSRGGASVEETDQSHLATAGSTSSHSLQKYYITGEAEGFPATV

COc1ccc(N2C(=O)/C(=C/c3cc(Cl)c(O)c(Cl)c3)OC2=S)cc1
inactive: Activity [1] | inhibition [2] | Activity [3] | Activity [4] | Activity [5] | Activity [6]

COc1ccc(N2C(=O)/C(=C/c3cc(Cl)c(OP(=O)(O)O)c(Cl)c3)OC2=S)cc1
inactive: Activity [1] | inhibition [2] | Activity [3] | Activity [4] | Activity [5] | Activity [6]
